Results published in US8168199B2, “Dipeptidyl peptidase IV inhibitors for the treatment of schizophrenia and depression” (priority 2000, dated 2012).

Test system: Male WistarF/Han (WF) rats
Assay: Social interaction (SI) test with Y1R antagonist BIBP3226, P32/98 and NPY (Example 4)
Format: in vivo, rat
Conditions: i.c.v. 50 nmol
Description: Animals. Male WistarF/Han (WF) rats (Central Animal Laboratory, Hannover Medical School, Hannover, Germany, weighing 330±31 g±SD, were housed in a sound-proof, temperature controlled (24.0±0.5° C.) room under specific pathogen free conditions with a 12/12 h dark/light cycle (lights on at 07.00 with illumination level of 80 Lux). Food (Altromin lab chow pellets) and tap water were available ad libitum. Under ketamine/xylasine (100/5 mg/kg, i.p.) anesthesia, the rats were fixed in a Kopf stereotaxic frame and implanted with cannulae (Plastic One, Inc., Roanoke, Va., USA) above the lateral ventricle. All research and animal care procedures were approved by the Lower Saxony district government (Hannover, Germany) and followed principles described in the European Community's Council Directive of 24 Nov. 1986 (86/609/EEC).
Surgery and i.c.v. application. […]
Animals were randomly divided into eight experimental groups (n=6-8/group), which completed one SI test of anxiety: (1) aCSF+aCSF+aCSF; (2) BIBP+aCSF+aCSF; (3) aCSF+P32/98+aCSF; (4) BIBP+P32/98+aCSF; (5) aCSF+aCSF+NPY; (6) BIBP+aCSF+NPY; (7) aCSF+[…]+NPY; (8) BIBP+P32/98+NPY. […] The time spent in active social interaction (SI-time), 1 h, and 12 h food-intake were measured. […]
Social interaction (SI) test. […] Behavior was monitored using a video camera placed above the field inside the testing/isolation box. The SI behavior of both rats was recorded on-line from a monitor placed outside on top of the box. The following parameters were scored by an observer (HPN) unaware of the substrain of rats: duration of time spent in sniffing, following, crawling under and over other rats, but not passive body contact (resting, sleeping). […]
Statistical analysis. Data obtained from the measures SI time and 1 h food intake were analyzed by one-way (factor: “treatment”) ANOVA. […]

CC[C@H](C)[C@H](N)C(=O)N1CCSC1 [P32/98]
SI-time, P32/98 alone: acts not anxiolytic-like
